# Literature values in patent US10945968B2, “Memantine transdermal delivery systems” (Corium, Inc., priority 2016, dated 2021).
# Details: DRUGBANK Accession No. DB01043
smiles,measurement,value
"C[C@]12CC3C[C@](C)(C1)C[C@@](N)(C3)C2 [Memantine, 3,5-dimethyladamantan-1-amine]",Log P reported range,3.31-2.07
